Measured values published in patent US20090156530A1, “Norepinepherine Transporter Mutants and Uses Thereof” (priority 2007, published 2009).

Legend:
[1] = molecular target: T1, NET (Mus musculus, UniProt O55192); experiment: NE transport assay in cortical synaptosomes; assay type: biochemical; conditions: for NE transport in KRH/Ca^2+ after drug treatment: 0.1-1 μM BIM, 5 μM KN93 or 10 μM W7, 15 min at 37° C.; for Effect on reduction in NET activity on switch from KRH/Ca^2+ to KRH/EGTA / Effect on elevation in NET activity triggered by addition of Ca^2+: pre-incubation with drug; for Effect on elevation in NET activity triggered by addition of Ca^2+: KRH/EGTA to KRH/Ca^2+
T1 construct: The pellets were collected as synaptosomes; from tissue; host or cells: mouse (C57/B16) brain cortex synaptosomes
T1 sequence (O55192 whole entry): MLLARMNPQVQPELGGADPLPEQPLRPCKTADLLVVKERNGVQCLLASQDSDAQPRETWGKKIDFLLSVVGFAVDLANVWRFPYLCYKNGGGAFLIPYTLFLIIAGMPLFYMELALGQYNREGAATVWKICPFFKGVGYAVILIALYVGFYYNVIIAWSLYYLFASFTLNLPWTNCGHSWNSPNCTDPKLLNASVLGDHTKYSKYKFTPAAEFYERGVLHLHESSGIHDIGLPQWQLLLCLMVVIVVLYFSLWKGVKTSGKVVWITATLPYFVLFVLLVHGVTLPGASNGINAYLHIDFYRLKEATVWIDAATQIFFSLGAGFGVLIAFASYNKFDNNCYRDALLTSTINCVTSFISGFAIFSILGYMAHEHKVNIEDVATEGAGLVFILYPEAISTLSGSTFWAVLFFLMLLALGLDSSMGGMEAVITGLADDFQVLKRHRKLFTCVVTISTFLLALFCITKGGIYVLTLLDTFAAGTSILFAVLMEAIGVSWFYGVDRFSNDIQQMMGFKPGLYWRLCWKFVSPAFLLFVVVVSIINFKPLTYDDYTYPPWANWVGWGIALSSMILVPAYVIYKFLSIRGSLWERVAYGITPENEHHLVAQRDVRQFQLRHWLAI
Description: Cell culture, transfection of cDNA or siRNA, generation of stable cell lines, preparation of cortical synaptosomes. CHO cells were maintained in DMEM/10% fetal bovine serum (FBS), 2 mM L-glutamine (L-Glu), 100 IU/ml penicillin, 100 μg/ml streptomycin (pen/strep). […]. The stable clones were selected using hygromycin B ([…], Invitrogen) and maintained in Ham's F12/10% FBS/L-Glu/pen/strep supplemented with Zeocin […] (Invitrogen). CAD-NET cells were generated by stably transfecting HA-NET in pcDNA3 into CAD cells and maintained in DMEM/F12/8% FBS/L-Glu/pen/strep/200 μg/ml of G418 (Mediatech). TransIT-LT1 transfection reagent (Mirus) was used for all transfections. All cells were plated on poly-D-lysine coated plates and incubated for 48 hrs for cDNA transfection and for 48 to 72 hrs for siRNA transfection prior to assays. For synaptosomal preparations, brain cortex was dissected from mice (C57/B16, Harlan) and homogenized in 10 mM HEPES, 0.32 M Sucrose, pH 7.4 using a Teflon pestle/homogenizer. Homogenates were centrifuged at 1,000 g, 5 min at 4° C., and then the supernatant were re-centrifuged at 16,000 g, 20 min at 4° C. The pellets were collected as synaptosomes.
Assay buffers, transport assays, Ca^2+ imaging. NE transport assays on synaptosomes (50-100 μg/assay reaction) or cells were described previously (Sung et al., 2003). Uptake assay was carried out in KRH/Ca^2+ (mM: 120 NaCl, 4.7 KCl, 1.2 KH2PO4, 10 HEPES, 1.2 MgSO4, 2.2 CaCl2, pH 7.4,) with 0.1 mM pargylnine, ascorbic acid, tropolone, and 1.8 mg/ml glucose, otherwise mentioned. KRH/EGTA is KRH with 0.2 mM EGTA and without CaCl2. When KRH/EGTA was used, KRH/Ca^2+ for the parallel experiment contained 0.2 mM EGTA as well. Uptake assays were initiated by addition of [^3H]-NE (1-[7,8-^3H] noradrenaline, Amersham Pharmacia) at 50 nM final concentration. For kinetics assays, 50, 100, 200 nM of [^3H]-NE, 400, 600, 800, 1,000, 1,200, 1,500 nM of 20% [^3H]-NE and 80% of unlabeled NE (Sigma) were used. Nonspecific uptake was defined using 1-10 μM desipramine. All assays were carried out at 37° C. for 10 min in triplicates. Ca^2+ imaging was performed as described previously (Apparsundaram et al., 2001). CHO cells were pre-loaded with […] fura-2/acetoxymethyl ester (fura-2/AM, Molecular Probe) and superfused with KRH/EGTA and 1 μM thapsigargin for 10 min. The medium was replaced with KRH/Ca^2+ or KRH/EGTA before measurement of intracellular Ca^2+. All experiments derive from at least 3 independent data and mean values were evaluated using a two-tailed Student's t-test or a one-way ANOVA, followed by Tukey's test, with p<0.05 considered significant (*). Data were analyzed using GraphPad Prism 4.
Protocols for restoration and depletion of Ca^2+ For uptake assay, synaptosomes were pre-incubated with drugs in KRH/Ca^2+. For increase of Ca^2+, synaptosomes were re-suspended in KRH/EGTA, transferred to fresh KRH/EGTA (EGTA to EGTA) or KRH/Ca^2+ (EGTA to Ca^2+), and incubated at 37° C. for 5 min prior to the addition of radiolabeled NE. NE uptake activity of synaptosomes in KRH/Ca^2+ was compared to the activity of synaptosomes in KRH/EGTA. For reduction of Ca^2+, synaptosomes were first resuspended in KRH/Ca^2+, divided into 2 aliquots, replaced with fresh KRH/Ca^2+ (Ca^2+ to Ca^2+) or KRH/EGTA (Ca^2+ to EGTA), and incubated at 37° C. for 5 min prior to the addition of radiolabeled NE. NE uptake activity of synaptosomes in KRH/EGTA was compared to the activity of synaptosomes in KRH/Ca^2+. Control cells were treated the same way except use of complete media with vehicle. Restoration of Ca^2+ for surface biotinylation was carried out by incubating cells in KRH/EGTA with 0.1-1 μM thapsigargin for 10 min at 37° C. to deplete Ca^2+. Cells were washed once with KRH/EGTA, replaced with KRH/EGTA or KRH/Ca^2+, and incubated for 1 min at RT to 5 min at 37° C. prior to biotinylation. […]

[2] = test system: human NET; experiment: Surface biotinylation of HA-NET in transiently transfected CHO cells; assay type: cell-based; conditions: for Change of transporter surface density in response to Ca^2+ manipulations (addition or depletion): HA-tagged NET mutants in CHO cells; for Effect on Ca^2+-depletion elicited reduction of NET surface density / Effect on Ca^2+-stimulated elevation of NET surface density: 5 μM KN93 30 min or 5 μM STO-609 1 hour; for Effect on Ca^2+-stimulated elevation of NET surface density: KRH/EGTA to KRH/Ca^2+
[3] = test system: NET; experiment: Whole cell patch clamp recording of NET currents in SCG neurons; assay type: cell-based, rat; conditions: 200 μM CdCl2, 5 μM KN93 15 min, 2 μM STO609 20 min
Description: Whole Cell Patch Clamp Recording of NET currents. Patch clamp experiments were performed using an amplifier Axopatch 200B with a low-pass filter set at 1 kHz. Quartz patch pipettes with 5-7 MΩ resistance were pulled by a programmable puller (model P-2000, Sutter Instruments Novato, Calif.) and filled with the internal solution containing (in mM): 120 KCl, 2 MgCl2, 10 HEPES, 2 MgATP, 30 dextrose and adjusted to pH 7.35. SCG neurons were washed twice with a control solution containing mMs 130 NaCl, 5 CaCl2, 0.5 MgCl2, 1.3 KCl, 10 HEPES, 34 dextrose adjusted to pH 7.35 before experiments. NET-mediated current was defined as the current recorded in control condition minus the current recorded in presence of 5 μM desipramine. Neurons were clamp at −50 mV and the NET-mediated current was recorded by stepping the membrane voltage to −120 mV for 500 ms before and after a 2 sec depolarizing step at −10 mV. NET-mediated current was studied in the control condition, in presence of 200 μM CdCl2, after 15 min preincubation with 5 μM KN93 and after 20 min preincubation with 2 μM STO609.

[4] = test system: NET; experiment: NE transport assay in CAD-NET cells; assay type: cell-based, human; conditions: KRH/Ca^2+
Description: Uptake assay was carried out in KRH/Ca^2+ (mM: 120 NaCl, 4.7 KCl, 1.2 KH2PO4, 10 HEPES, 1.2 MgSO4, 2.2 CaCl2, pH 7.4,) with 0.1 mM pargylnine, ascorbic acid, tropolone, and 1.8 mg/ml glucose, otherwise mentioned. KRH/EGTA is KRH with 0.2 mM EGTA and without CaCl2. When KRH/EGTA was used, KRH/Ca^2+ for the parallel experiment contained 0.2 mM EGTA as well. […] Nonspecific uptake was defined using 1-10 μM desipramine. All assays were carried out at 37° C. for 10 min in triplicates. […] All experiments derive from at least 3 independent data and mean values were evaluated using a two-tailed Student's t-test or a one-way ANOVA, followed by Tukey's test, with p<0.05 considered significant (*).

[5] = test system: NET; experiment: Surface NET immunolabeling in cultured SCG neurons on high K+ depolarization; assay type: cell-based, rat; conditions: SCG cultures, high potassium buffer, preincubated with drug
Description: Primary neuronal culture, immunohistochemistry, electrophysiology. […] Surface-labeling of NET has been preformed by staining non-fixed SCG culture with anti-NET sera 43408 as described in (Savchenko et al., 2003). For detection of plasma membrane changes+/−depolarization, SCG neurons were preincubated with normal medium (2.5 mM K+) or in 40 mM or 90 mM K^+ for 15 min followed by incubation with NET 43408 antibody for 1 hr at RT in the absence of detergent. Cells were washed and fixed with 3% p-formaldehyde for 10 min prior to visualization of NET labeling using Cy3-conjugated anti-rabbit antibodies. Specimens from multiple fields were examined with a Zeiss LSM 510 Meta imaging system equipped with internal He/Ne and external Ar/Kr lasers. Images were collected were averaged across multiple fields of replicate experiments (n=3), pseudocolored for presentation, and pixel intensity calculated over processes immunopositive by double-staining for tubulin immunoreactivity in Metamorph.

[6] = test system: human NET; experiment: NE transport assay in transiently transfected CHO cells; assay type: cell-based
Target sequence in this assay (P23975 48-617 limits assumed): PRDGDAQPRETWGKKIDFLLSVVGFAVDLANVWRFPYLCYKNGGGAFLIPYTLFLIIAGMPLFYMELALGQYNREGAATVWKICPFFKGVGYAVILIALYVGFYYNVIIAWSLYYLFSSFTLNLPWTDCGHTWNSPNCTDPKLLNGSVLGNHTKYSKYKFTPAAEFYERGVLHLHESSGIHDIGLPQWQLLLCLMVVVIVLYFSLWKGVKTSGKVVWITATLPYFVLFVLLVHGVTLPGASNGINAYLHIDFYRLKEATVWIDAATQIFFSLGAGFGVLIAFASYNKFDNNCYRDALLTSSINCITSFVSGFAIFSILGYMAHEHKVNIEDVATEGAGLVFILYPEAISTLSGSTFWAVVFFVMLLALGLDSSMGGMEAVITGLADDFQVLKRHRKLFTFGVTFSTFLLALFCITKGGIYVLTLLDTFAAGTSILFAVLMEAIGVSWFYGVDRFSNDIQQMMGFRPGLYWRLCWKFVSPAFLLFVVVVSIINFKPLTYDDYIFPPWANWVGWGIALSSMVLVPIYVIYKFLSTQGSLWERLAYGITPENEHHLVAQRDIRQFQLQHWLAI

[7] = test system: human NET; experiment: [32P] metabolic labeling and immunoprecipitation of NET in stable CHO cells; assay type: cell-based; conditions: KRH/EGTA to KRH/Ca^2+ for 5 min
Description: Cell culture, transfection of cDNA or siRNA, generation of stable cell lines, preparation of cortical synaptosomes. CHO cells were maintained in DMEM/10% fetal bovine serum (FBS), 2 mM L-glutamine (L-Glu), 100 IU/ml penicillin, 100 μg/ml streptomycin (pen/strep). CHO-NET or CHO-NET T30A cells were generated by stably transfecting HA-NET or HA-NET T30A in pcDNA5/FRT (Invitrogen) into CHO-Flip-In cells (Invitrogen). The stable clones were selected using hygromycin B ([…], Invitrogen) and maintained in Ham's F12/10% FBS/L-Glu/pen/strep supplemented with Zeocin […] (Invitrogen). CAD-NET cells were generated by stably transfecting HA-NET in pcDNA3 into CAD cells and maintained in DMEM/F12/8% FBS/L-Glu/pen/strep/200 μg/ml of G418 (Mediatech). TransIT-LT1 transfection reagent (Mirus) was used for all transfections. All cells were plated on poly-D-lysine coated plates and incubated for 48 hrs for cDNA transfection and for 48 to 72 hrs for siRNA transfection prior to assays. […]
Biochemical analysis and phosphorylation. […] Phosphorylated bands were captured via Phosphoimager (Typhoon 9400, Molecular Dynamics/GE Healthcare Life Sciences) and analyzed using ImageQuant 5.2 (Molecular Dynamics). […] Exposed films of immunoblots were scanned using an Agfa Duoscan T1200 and the captured images processed in Adobe® Photoshop® and quantitated using NIH image.

Molecule: bisindolylmaleimide I [BIM]
- NE transport in KRH/Ca^2+ after drug treatment [1]: inhibited NE transport
- Effect on reduction in NET activity on switch from KRH/Ca^2+ to KRH/EGTA [1]: failed to attenuate the loss of NET activity
- Effect on elevation in NET activity triggered by addition of Ca^2+ [1]: no ability to attenuate Ca^2+-stimulated NET activity

Molecule: NC[C@H](O)c1ccc(O)c(O)c1 [NE, norepinephrine]
- NE transport Vmax ([1]; KRH/EGTA): 0.129+/−0.0129 pmol/mg protein/min

Molecule: NET T30E: human NET mutant designed to mimic constitutive phosphorylation at T30
- Change of transporter surface density in response to Ca^2+ manipulations (addition or depletion) [2]: failed to change

Molecule: CdCl2
- Effect on increase in NET current triggered by prior depolarization [3]: prevented the increase in NET current

Molecule: KN93
- NE transport in KRH/Ca^2+ after drug treatment [1]: inhibited NE transport
- NE transport after addition of Ca^2+, % of control ([1]; drug pre-treated synaptosomes, KRH/EGTA to KRH/Ca^2+ (2.2 mM final), 5 μM KN93): 140.5+/−11.2%
- NE uptake when switched to KRH/EGTA, % of NE uptake in KRH/Ca^2+ ([1]; drug pre-treated synaptosomes, 5 μM KN93): 67.5+/−7.2%
- Effect on reduction in NET activity on switch from KRH/Ca^2+ to KRH/EGTA [1]: blunted
- Effect on elevation in NET activity triggered by addition of Ca^2+ [1]: significantly blunted the elevation in NET activity
- Effect on Ca^2+-depletion elicited reduction of NET surface density ([2]; CHO cells): blocked
- Effect on Ca^2+-stimulated elevation of NET surface density ([2]; CHO cells): blocked
- Basal NE transport [4]: able to suppress NE transport
- Depolarization triggered increase of surface NET density [5]: failed to increase surface NET density
- Effect on increase in NET current triggered by prior depolarization [3]: prevented the stimulation-elicited increase in NET currents

Molecule: NET T30A: human NET with T30 mutated to alanine, HA-tagged
- Basal surface expression versus wildtype hNET ([2]; CHO cells, n=3): 117+/−18.5%
- Change of transporter surface density in response to Ca^2+ manipulations (addition or depletion) [2]: complete lack of Ca^2+ sensitivity
- Recovery of NE transport after Ca^2+ depletion ([6]; 15 min Ca^2+ restoration including 10 min transport assay): failed to recover NE transport activity
- NE transport activity in KRH/Ca^2+ ([6]; transiently transfected CHO cells): equivalent to wild-type NET
- Phosphorylation following Ca^2+ addition [7]: no phosphorylation

Molecule: O=C(O)c1ccc2c3c1cccc3c(=O)n1c3ccccc3nc21 [STO-609]
- Effect on Ca^2+-depletion elicited reduction of NET surface density ([2]; CHO cells): prevented a loss of NET from the surface
- Effect on Ca^2+-stimulated elevation of NET surface density ([2]; CHO cells): completely blocked the increase in surface NET protein
- Basal NE transport [4]: did not influence basal NE transport
- Effect on increase in NET current triggered by prior depolarization [3]: prevented the stimulation-elicited increase in NET currents
- Effect on increase in NET current triggered by prior depolarization ([3]; listed as STO609): converted the stimulation-induced increase into a stimulation-elicited decrease in NET currents
